Earlier results as cited in patent US8895039B2, “Cosmetic preparations containing hydrocarbons” (Cognis IP Management GmbH, priority 2007, dated 2014).

Conditions: at 20° C.

## CCCCCCCCC [Nonane]
  Viscosity: 0.711 cP
